Results on one molecule are retold here after article PMC11056381, “Characterization and evaluation of cytotoxic and antimicrobial activities of cyclotides from Viola japonica” (Scientific Reports, 2024).

Holding throughout (type): cell-based
Assay [1] concerns Salmonella paratyphi (CMCC(B)50094-2-9). The assay can be described thus: MIC, broth dilution in 96-well plate. The note with it: 10^6 CFU/ml, overnight 37 °C, visual clarity, performed at least three times. An excerpt:
(§1) Cycloviolacin O2, known for its antimicrobial, hemolytic, and insecticidal activities, has been more extensively investigated[4],[20],[36]–[38]. Viba 11, originally discovered in Viola baoshanensis[39] and found in other plants such as Viola tricolor[40], Viola betonicifolia, and Viola philippica, lacks biological activity studies. These two cyclotides and vija 10 are high in content and easy to purify, and cycloviolacin O2 can also be used as a positive control to conduct activity study. In addition, few vija12 and 31 were extracted for antibacterial experiments. All purified cyclotides underwent antibacterial testing against Gram-positive bacterium Staphylococcus aureus (CMCC(B)26003-2-10) and Bacillus subtilis (CMCC(B)63501), Gram-negative bacteria, including Acinetobacter baumannii (ATCC19606), Escherichia coli (CMCC(B)44102-2-6), and Salmonella paratyphi (CMCC(B)50094-2-9). […] In addition, the MICs of viba 11, cycloviolacin O2 and vija 10 against B. subtilis were respectively 5.4 μM, 2.1 μM and 14.3 μM (Table 1). […] Therefore, it is hypothesized that the lower antimicrobial activity of vija 10 may be attributed to the presence of only one Lys residue in loop 5.
(§2) Bacterial fluids are cultured overnight at 37 °C. The next day, the bacterial liquids are diluted to a concentration of 10^6 CFU/ml. Prepare different concentrations of cyclotide drugs and kanamycin sulfate in advance, and sequentially add the drugs and bacterial liquid to the 96-well plate. Negative controls consisted of sterile water and bacterial liquid. The plate is cultured overnight at 37 °C and observe whether the solution remains clear to see the growth of the bacterial suspension. Each test was performed three times at least.
For orientation: Dilution methods test growth across graded concentrations, often in twofold steps.

Assay [2] relates to Staphylococcus aureus (CMCC(B)26003-2-10). The assay is described as follows: MIC, broth dilution in 96-well plate. The note with it: 10^6 CFU/ml, overnight 37 °C, visual clarity, performed at least three times.
Text: as §1, §2

Assay [3] deals with Bacillus subtilis. The assay can be described thus: DAPI/PI staining, laser scanning confocal microscopy (membrane integrity). Particulars: B. subtilis 10^8 CFU/mL, 37 °C, 1-2 h, DAPI and PI staining. An excerpt: Many naturally occurring antimicrobial peptides (AMPs) are cationic. Cationic AMPs (CAMPs) exert bactericidal activity by mechanisms featuring cell membrane disruption. Cyclotides are likely to kill germ by disrupting their membranes. Laser scanning confocal microscopy can be used to study the ability of cyclotides to destroy bacterial membrane. 4′, 6-diaminyl-2-phenylindole (DAPI) is a blue fluorescent dye that can penetrate membranes and stain both living and dead strains, while propyl iodide (PI) stains only strains with damaged membranes, glowing red[46],[47]. In this study, the bracelet cyclotide family members viba 11 and vija 10 interacted with A. baumannii and B. subtilis in their logarithmic phase at 37 °C for 1–2 h. After the addition of DAPI and PI fluorescent dyes, the samples were incubated in a dark room at room temperature for 15 min for staining. The stained samples were then centrifuged to concentrate, resuspended, and applied to a slide for observation using a confocal laser scanning microscope (FLUOVIEW FV3000, Olympus). […] With increasing concentration, the blue and red fluorescence gradually overlapped. […] However, the magnification is not sufficient to detect further details of membrane disruption. Therefore, further exploration can be conducted using methods such as scanning electron microscopy (SEM) to study the antibacterial mechanism in depth.
Figure 5 Study on the antimicrobial mechanism of cyclotides. (A) Incubation of Acinetobacter baumannii with sterile water, 1 MIC and 4 MIC of viba 11. (B) Incubation of Bacillus subtilis with sterile water, 1 MIC and 4 MIC of vija 10. All samples were stained with DAPI and PI. The negative control group PI is not stained and the membrane is intact, while the membrane treated with cyclotides was stained and the membrane are destroyed. Scale bar: 20 μm. Magnification: 600×.
Take 50 μL of A. baumannii and B. subtilis (10^8 CFU/mL), and add 50 μL of sterile water, different concentrations of cyclotides viba 11 and vija 10 to achieve final concentrations of 1 MIC and 4 MIC respectively. Incubate at 37 °C for 1–2 h. Subsequently, add 4,6-diamino-2-phenylindole (DAPI) and propidium iodide (PI) dyes at 20 μg/mL each, and incubate in the dark for 15 min. Centrifuge at 5000 rpm for 3 min to concentrate, discard the majority of the supernatant, and resuspend the bacteria in the remaining small volume of liquid. Mix well and take 10 μL of the stained sample onto a glass slide, gently place a cover slip on top with forceps, avoiding the formation of bubbles during the pressing process. After sealing the cover slip, check with a laser confocal microscope, and the observation was conducted using an objective lens with the maximum magnification of 60 × . […]

Each structure is given as a SMILES string. Residues, ends and D or L forms follow the SMILES beside them.

In general, MIC refers to the smallest concentration in the dilution series that meets the test's criterion for growth inhibition. High values mean a need for much substance, low ones inhibition by little substance. Regarding `CC[C@H](C)[C@@H]1NC(=O)[C@@H]2CSSC[C@@H]3NC(=O)[C@H](C(C)C)NC(=O)[C@H](CCCCN)NC(=O)[C@H](CO)NC(=O)[C@H](CO)NC(=O)[C@@H]4CSSC[C@H](NC(=O)[C@H](CO)NC(=O)[C@H](CCC(=O)O)NC(=O)CNC(=O)[C@H](CSSC[C@H](NC(=O)CNC(=O)[C@H](CC(C)C)NC(=O)[C@H](CC(C)C)NC(=O)[C@H](C)NC(=O)[C@H](CO)NC1=O)C(=O)N[C@@H](CO)C(=O)N4)NC(=O)[C@@H]1CCCN1C(=O)[C@H]([C@@H](C)CC)NC(=O)[C@H](CO)NC(=O)CNC(=O)[C@H](CC(N)=O)NC(=O)[C@H](CCCCN)NC(=O)[C@H](Cc1ccc(O)cc1)NC3=O)C(=O)N[C@@H](C(C)C)C(=O)N[C@@H](Cc1ccccc1)C(=O)N[C@@H]([C@@H](C)CC)C(=O)N1CCC[C@H]1C(=O)N2` [vija 10] (HELM PEPTIDE1{A.L.L.G.C.S.C.S.S.K.V.C.Y.K.N.G.S.I.P.C.G.E.S.C.V.F.I.P.C.I.S}$PEPTIDE1,PEPTIDE1,5:R3-20:R3|PEPTIDE1,PEPTIDE1,7:R3-24:R3|PEPTIDE1,PEPTIDE1,12:R3-29:R3|PEPTIDE1,PEPTIDE1,1:R1-31:R2$$$V2.0), the MIC in assay [1] and in assay [2] was above 28.5 µM each time. The “membrane integrity (PI red fluorescence)” value in assay [3] (1 MIC) was “caused damage to the membrane integrity”; in assay [3] (4 MIC), “majority of the cell membranes were ruptured”.
